Experimental data: patent US10136642B2, “Composition of peracetic acid and at least one organic fungicide for the control and/or the treatment of diseases associated with the presence of pathogens, and method, use and kit involving said composition” (priority 2015, dated 2018)
Where a name gives a salt, the structure may show the parent alone.

Experiments:
Erwinia amylovora = test: Example 5 in vitro agar well inhibition of Erwinia amylovora; assay type: cell-based; conditions: LBA plates, 25° C., 72 hours; for bacterial inhibition zone (diameter): 1 cm center well
Description: Virgin Luria-Bertani agar (LBA) plates were inoculated in triplicate each with 1 mL of concentrated Erwinia amylovora suspension by aseptically spreading the bacteria uniformly onto the agar surfaces. A center well 1 cm in diameter was punched into the agar of each plate. Test products were added dropwise into each of these center wells until the liquid level just reached the agar surface (normally 5-7 drops were required). Plates were incubated at 25° C. for 72 hours then observed for evidence of bacterial growth inhibition.
Treatment List • 1. NEO-BOOST at 3.6 g/L. • 2. FireLine® [oxytetracycline hydrochloride 17% w/w] at 1.2 g/L • 3. FireWall® [streptomycin sulfate 17% w/w] at 0.6 g/L • 4. FireLine® at 1.2 g/L+FireWall® at 0.6 g/L • 5. NEO-BOOST at 3.6 g/L+FireLine® at 1.2 g/L • 6. NEO-BOOST at 3.6 g/L+FireWall® at 0.6 g/L • 7. NEO-BOOST at 3.6 g/L+FireLine® at 1.2 g/L+FireWall® at 0.6 g/L 8. Water.

[1] = Example 8 amount of peracetic acid in solution over time (NEO-PURE Liquid with/without Quadris); assay type: physicochemical; conditions: diluted NEO-PURE Liquid
From the text: Another liquid organic formulation based on pre-formed peracetic acid, called NEO-PURE™ Liquid, was formulated to study its compatibility with single-site fungicides such as azoles and strobilurins.
The above formulation contains a minimum of 5% w/w active peracetic acid and 20% w/w hydrogen peroxide.

[2] = Example 4 HPLC compatibility: degradation of azoxystrobin by NEO-BOOST 18/18; assay type: physicochemical; conditions: NEO-BOOST 18/18 at 3.6 g/L combined with 0.5 g/L azoxystrobin as Quadris
Description: NEO-BOOST 18/18 at 3.6 g/L was combined with 0.5 g/L azoxystrobin in the form of Quadris®. In addition, several controls were prepared consisting of respectively: 0.5 g/L azoxystrobin in the form of Quadris®, and NEO-BOOST 18/18 at 3.6 g/L. All of the above were then converted or rendered into a form that could be analyzed by high-performance liquid chromatography (HPLC). The HPLC column was first calibrated with the reference standard azoxystrobin and then the samples were injected into the column at predetermined intervals to see whether the Quadris® was degraded at all by the NEO-BOOST 18/18.

| Structure (SMILES) | bacterial inhibition zone (diameter) (Erwinia amylovora) | depth of inhibition through the bacterial lawn to the agar surface (Erwinia amylovora) | decomposition of peracetic acid by the presence of azoxystrobin over time [1] | degradation of azoxystrobin by NEO-BOOST (HPLC) [2] |
| --- | --- | --- | --- | --- |
| CN(C)[C@@H]1C(=O)C(C(N)=O)=C(O)[C@@]2(O)C(=O)C3=C(O)c4c(O)cccc4[C@@](C)(O)[C@H]3[C@H](O)[C@@H]12.Cl [Oxytetracycline, oxytetracycline hydrochloride] | about 3 cm | penetrated all the way down to the agar surface | – | – |
| CO/C=C(/C(=O)OC)c1ccccc1Oc1cc(Oc2ccccc2C#N)ncn1 [azoxystrobin, methyl (E)-2-{2-[6-(2-cyanophenoxy)pyrimidin-4-yloxy]phenyl}-3-methoxyacrylate] | – | – | not decomposed | did not degrade azoxystrobin at all |
| [H]/N=C(/N)N[C@H]1[C@H](O)[C@@H](O)[C@H](O[C@@H]2O[C@@H](C)[C@](O)(C=O)[C@H]2O[C@@H]2O[C@@H](CO)[C@H](O)[C@@H](O)[C@@H]2NC)[C@@H](N/C(N)=N\[H])[C@@H]1O [streptomycin, streptomycin sulfate] | about 3 cm | penetrated all the way down to the agar surface | – | – |
